Tested on: CD8+ T cells
Assay: IFN-gamma ELISpot analysis of T cells stimulated with neopeptide-loaded autologous CD40-activated B cells
Type: cell-based, human
Settings: T cells from HLA-A0201-positive healthy proband, weekly stimulation

“FLSASHFLL [peptide #15, HLA-A0201-restricted neopeptide encoded by mutated cMNR]” was tested, and the “reactivity (IFN-gamma ELISpot)” value (day 35) was 1123 specific cells/1,000,000 cells.
“SLYKFSPFPL [peptide #16, HLA-A0201-restricted neopeptide encoded by mutated cMNR]” was tested, and the “reactivity (IFN-gamma ELISpot)” value (day 28) was 1760 specific cells/1,000,000 cells.
For “TLSPGWSAV [peptide #21, HLA-A0201-restricted neopeptide encoded by mutated cMNR]”, the “reactivity (IFN-gamma ELISpot)” value (day 35) was 733 specific cells/1,000,000 cells.
